The values that follow come from article PMC12396409, “Screening and hit evaluation of a microbial metabolite library against the pathogenic Plasmodium falciparum and Toxoplasma gondii parasites” (International Journal for Parasitology: Drugs and Drug …, 2025).

Read-outs that look alike come from different tables or passages of the source.

For assay [1], the system named is P. falciparum 3D7 parasites. The experiment in a line: P. falciparum growth inhibition assay, 2-cycle (120 h treatment), delayed-death screen and dose-response. It is filed as cell-based, Plasmodium falciparum.
Assay [2] relates to P. falciparum 3D7 parasites. The experiment in a line: P. falciparum growth inhibition assay, 1-cycle (72 h treatment), SYBR DNA staining (library screen at 2 μg/mL and dose-response). It is filed as cell-based, Plasmodium falciparum.
For assay [3], the system named is T. gondii RH strain (RH-Tub-eYFP) tachyzoites. The experiment in a line: microbe, parasite or virus in culture. It is filed as cell-based, Toxoplasma gondii. Particulars: for percent parasite growth at 2 µg/mL: Toxoplasma gondii.
Where [4] appears, read: Plasmodium falciparum, 3D7, library screen at 2 μg/mL, 120 h, % growth, replicate 1, read-out: Pf_120h_%Growth_Rep1.
Setting [5] is: Plasmodium falciparum, 3D7, library screen at 2 μg/mL, 120 h, % growth, replicate 2, read-out: Pf_120h_%Growth_Rep2.
[6] abbreviates: Plasmodium falciparum, 3D7, library screen at 2 μg/mL, 72 h, % growth, replicate 1, read-out: Pf_72h_%Growth_Rep1.
Setting [7] is: Plasmodium falciparum, 3D7, library screen at 2 μg/mL, 72 h, % growth, replicate 2, read-out: Pf_72h_%Growth_Rep2.
Where [8] appears, read: 72 h, library screen at 2 μg/mL, 72 h, % growth, replicate 1, read-out: Tg_72h_%Growth_Rep1.
Where [9] appears, read: 72 h, library screen at 2 μg/mL, 72 h, % growth, replicate 2, read-out: Tg_72h_%Growth_Rep2.
Setting [10] is: library screen at 2 μg/mL, 72 h, % growth, replicate 1.
Setting [11] is: library screen at 2 μg/mL, 72 h, % growth, replicate 2.
Setting [12] is: P. falciparum, 120 h, parasite screen 2 μg/mL, % growth, replicate 1.
The mark [13] stands for this setting: P. falciparum, 120 h, parasite screen 2 μg/mL, % growth, replicate 2.
Setting [14] is: P. falciparum, 72 h, parasite screen 2 μg/mL, % growth, replicate 1.
The mark [15] stands for this setting: P. falciparum, 72 h, parasite screen 2 μg/mL, % growth, replicate 2.
Where [16] appears, read: T. gondii, 72 h, parasite screen 2 μg/mL, % growth, replicate 1.
The mark [17] stands for this setting: T. gondii, 72 h, parasite screen 2 μg/mL, % growth, replicate 2.

Take `COc1ccc(C2CC(=O)c3c(O)cc(OC4OC(COC5OC(C)C(O)C(O)C5O)C(O)C(O)C4O)cc3O2)cc1O` (centres unmarked) [BIA-H1766]: the Pf_120h_%Growth_Rep1 in assay [1] (P. falciparum 3D7, 120 h, library screen at 2 μg/mL, % growth, replicate 1) turned out to be 111.90%. The Pf_120h_%Growth_Rep2 in assay [1] (P. falciparum 3D7, 120 h, library screen at 2 μg/mL, % growth, replicate 2) is 121.98%. This compound also had a Pf_72h_%Growth_Rep1 in assay [2] (P. falciparum 3D7, 72 h, library screen at 2 μg/mL, % growth, replicate 1) of 83.53%. The compound further yielded a Pf_72h_%Growth_Rep2 in assay [2] (P. falciparum 3D7, 72 h, library screen at 2 μg/mL, % growth, replicate 2) of 99.72%. Besides, the Tg_72h_%Growth_Rep1 in assay [3] (T. gondii RH, 72 h, library screen at 2 μg/mL, % growth, replicate 1) was determined as 124.64%. This compound had a Tg_72h_%Growth_Rep2 in assay [3] (T. gondii RH, 72 h, library screen at 2 μg/mL, % growth, replicate 2) of 85.96%.
As for `Nc1ncnc2c1ncn2[C@@H]1O[C@H](CO)C[C@H]1O` [Cordycepin], the activity at 2 µg/mL in assay [1] (Plasmodium falciparum, 3D7, P. falciparum, 120 h, screen at 2 μg/mL, replicate 1, read-out: Pf_120h_%Growth_Rep1) came to 24.5%; in assay [1] (Plasmodium falciparum, 3D7, P. falciparum, 120 h, screen at 2 μg/mL, replicate 2, read-out: Pf_120h_%Growth_Rep2), 12.4%; in assay [2] (Plasmodium falciparum, 3D7, P. falciparum, 72 h, screen at 2 μg/mL, replicate 1, read-out: Pf_72h_%Growth_Rep1) it was 22.1%; in assay [2] (Plasmodium falciparum, 3D7, P. falciparum, 72 h, screen at 2 μg/mL, replicate 2, read-out: Pf_72h_%Growth_Rep2), 11.8%. The percent parasite growth at 2 µg/mL in assay [3] (72 h, T. gondii, 72 h, screen at 2 μg/mL, replicate 1, read-out: Tg_72h_%Growth_Rep1) turned out to be 80%; in assay [3] (72 h, T. gondii, 72 h, screen at 2 μg/mL, replicate 2, read-out: Tg_72h_%Growth_Rep2), 99.7%.
For the compound `COC(=O)c1cc(O)cc(OC)c1Oc1cc(C)cc(O)c1C(=O)O` [Asterric Acid], the activity at 2 µg/mL is 145% in assay [1] (setting [4]), 103% in assay [1] (setting [5]), 98.8% in assay [2] (setting [6]) and 86.1% in assay [2] (setting [7]). The percent parasite growth at 2 µg/mL turned out to be 79.1% in assay [3] (setting [8]) and 94.1% in assay [3] (setting [9]).
Regarding `COc1cc(C)c(C(=O)Oc2cc(C)c(C(=O)O)c(O)c2C)c(OC)c1C` [Diffractaic acid], the activity at 2 µg/mL in assay [1] (setting [4]) worked out at 91.2%; in assay [1] (setting [5]), 81.2%; in assay [2] (setting [6]), 80.1%; in assay [2] (setting [7]) it was 79.9%. The percent parasite growth at 2 µg/mL in assay [3] (setting [8]) is 133%; in assay [3] (setting [9]), 97.5%.
Aflatoxin B1: in assay [1], the Pf_120h_%Growth_Rep1 is listed as 89.63% and the Pf_120h_%Growth_Rep2 is listed as 84.39%. In assay [2], this compound gave a Pf_72h_%Growth_Rep1 of 79.06% and a Pf_72h_%Growth_Rep2 of 85.00%. Besides, in assay [3], the Tg_72h_%Growth_Rep1 is listed as 27.47% and the Tg_72h_%Growth_Rep2 stood at 33.32%.
On to `CC[C@]1(C)C[C@@H](OC(=O)CSc2nnc(N)[nH]2)[C@]2(C)[C@H](C)CC[C@]3(CCC(=O)[C@H]32)[C@@H](C)[C@@H]1O` [Azamulin], for which, in assay [1] (2 μg/mL, criteria: ≥40 % growth at 72 h, ≤20 % growth at 120 h, at least 5-fold), the “delayed-death activity in the 120 h screen against P. falciparum” value is “delayed-death activity”. Moreover, the “3) Fold change (72 h/120 h)” value in assay [1] (P. falciparum, growth at 72 h / growth at 120 h, 2 μg/mL) was 6.9. The activity at 2 µg/mL in assay [1] (Plasmodium falciparum, 3D7; P. falciparum, 2 μg/mL, 120 h; read-out: 2) Growth (%) at 120 h) was 8.89%; in assay [1] (setting [4]), 15.6%; in assay [1] (setting [5]), 2.17%; in assay [2] (Plasmodium falciparum, 3D7; P. falciparum, 2 μg/mL, 72 h; read-out: 1) Growth (%) at 72 h) it was 61.2%; in assay [2] (setting [6]), 59.3%; in assay [2] (setting [7]), 63.1%. The percent parasite growth at 2 µg/mL came to 65.2% in assay [3] (setting [8]) and 70.7% in assay [3] (setting [9]). Also, the “Screen (T. gondii)” value in assay [3] (library screen at 2 μg/mL, RH strain, 72 h) is “I”.
As for `CC1(O)Cc2oc3cc(O)c(O)c(C(=O)O)c3c(=O)c2CO1` (centres unmarked) [Fulvic acid], in assay [1] (library screen at 2 μg/mL, 120 h, % growth, replicate 1), the Pf_120h_%Growth_Rep1 is recorded as 105.15%. The Pf_120h_%Growth_Rep2 in assay [1] (library screen at 2 μg/mL, 120 h, % growth, replicate 2) came to 98.61%. Further, the Pf_72h_%Growth_Rep1 in assay [2] (setting [10]) worked out at 84.86%. In assay [2] (setting [11]), this compound displayed a Pf_72h_%Growth_Rep2 of 84.76%. In assay [3] (setting [10]), the Tg_72h_%Growth_Rep1 came to 149.83%. This compound also came in with a Tg_72h_%Growth_Rep2 in assay [3] (setting [11]) of 113.67%.
In assay [1] (setting [12]), `C=C/C(C)=C/[C@H](C)C(=O)C[C@H](O)CC1CC(=O)NC(=O)C1` [Streptimidone] had a Pf_120h_%Growth_Rep1 of 72.22%. The Pf_120h_%Growth_Rep2 in assay [1] (setting [13]) came out at 22.01%. In addition, the Pf_72h_%Growth_Rep1 in assay [2] (setting [14]) is recorded as 21.69%. Besides, in assay [2] (setting [15]), the Pf_72h_%Growth_Rep2 stood at 38.20%. Also, in assay [3] (setting [16]), the Tg_72h_%Growth_Rep1 came to 3.03%. Besides, the Tg_72h_%Growth_Rep2 in assay [3] (setting [17]) turned out to be 2.79%.
In assay [1] (setting [12]), `CC[C@H](C)[C@H]1NC(=O)c2c1n(C)c1ccccc1c2=O` [Quinolactacin A1] showed a Pf_120h_%Growth_Rep1 of 17.07%. Further, the Pf_120h_%Growth_Rep2 in assay [1] (setting [13]) is -10.01%. This compound also registered a Pf_72h_%Growth_Rep1 in assay [2] (setting [14]) of 15.83%. Besides, the Pf_72h_%Growth_Rep2 in assay [2] (setting [15]) is recorded as 6.94%. The Tg_72h_%Growth_Rep1 in assay [3] (setting [16]) is listed as 131.04%. The compound further had a Tg_72h_%Growth_Rep2 in assay [3] (setting [17]) of 75.52%.
